Results as given in patent publication US4056615A, “Lucknomycin and process for producing same” (U C B Societe Anonyme, priority 1975, dated 1977).
Converted amounts (≈) assume the structure as drawn. “Also recorded” adds a separate entry of the source. Where two headings read alike, the source gives them in different places.

Key:
Aspergillus niger = test: MIC, complete inhibition of growth, Aspergillus niger; format: cell-based
Method: (§1) Lucknomycin is introduced at different dilutions into a peptonedextrose medium inoculated with the organism which is to be tested. After incubation for from 2 to 5 days at 28° C., the number of microgrammes of antibiotic per milliliter of medium is determined which must be used to obtain complete inhibition of growth (MIC) of the organism in question. In order to better point out the antifungal activity of Lucknomycin, it is compared with that of other known antifungal antibiotics.

Candida albicans 11651 = test: MIC, complete inhibition of growth, Candida albicans 11651; format: cell-based
Method: as §1

Trichomoras vaginalis = test: MIC, complete inhibition of growth, Trichomonas vaginalis; format: cell-based
Method: as §1

[1] = tested on: Lactobacillus acidophilus; test: Antibacterial spectrum, Lactobacillus acidophilus; format: cell-based; settings: 10 mcg/ml, one day at 37° C.
Method: as §1
(§2) The experimental conditions are the same as for the determination of the fungal spectrum, except that the incubation time is one day at 37° C.

Trichomonas vaginalis [2] = test: Anti-Trichomonas vaginalis activity, subcutaneous Trichomonas vaginalis abscess in mice; format: in vivo; settings: subcutaneous injections at the level of the abscess
Source text: This test is made in mice on a subcutaneous Trichomonas vaginalis abscess. Subcutaneous injections at the level of the abscess of a suspension (or solution) of the following products at various concentrations are used to determine the ED50.

Staphylococcus aureus = test: Antibacterial spectrum, Staphylococcus aureus; format: cell-based; settings: 10 mcg/ml, one day at 37° C.
Method: as §1, §2

Candida krusei = test: MIC, complete inhibition of growth, Candida krusei; format: cell-based
Method: as §1

Proteus mirabilis = test: Antibacterial spectrum, Proteus mirabilis; format: cell-based; settings: 10 mcg/ml, one day at 37° C.
Method: as §1, §2

Trichomonas vaginalis [3] = test: Antiprotozoal activity, killing of a culture in full growth of Trichomonas vaginalis; format: cell-based; settings: 0.5 mcg./ml.; within about 30 minutes
Method: A concentration of 0.5 mcg./ml. of the antibiotic kills 50% of individuals of a culture in full growth of Trichomonas vaginalis within a period of about 30 minutes.

Klebsiella pneumoniae = test: Antibacterial spectrum, Klebsiella pneumoniae; format: cell-based; settings: 10 mcg/ml, one day at 37° C.
Method: as §1, §2

Escherichia coli = test: Antibacterial spectrum, Escherichia coli; format: cell-based; settings: 10 mcg/ml, one day at 37° C.
Method: as §1, §2

Trichophyton acuminatum = test: MIC, complete inhibition of growth, Trichophyton acuminatum; format: cell-based; settings: for MIC: peptone-dextrose medium, 2 to 5 days at 28° C.
Method: as §1

Pseudomonas aeruginosa = test: Antibacterial spectrum, Pseudomonas aeruginosa; format: cell-based; settings: 10 mcg/ml, one day at 37° C.
Method: as §1, §2

Candida tropicalis = test: MIC, complete inhibition of growth, Candida tropicalis; format: cell-based
Method: as §1

Solubility = format: physicochemical
Candida albicans = test: Anti-Candida albicans activity, experimental Candida albicans vaginitis in female rats; format: in vivo; settings: per tablet: lucknomycin 5 mg., clotrimazole 20 mg., nystatin 4 mg.
Source text: The test is made in female rats on experimental Candida albicans vaginitis.

Streptococcus faecalis = test: Antibacterial spectrum, Streptococcus faecalis; format: cell-based; settings: 10 mcg/ml, one day at 37° C.
Method: as §1, §2

mice = test: Toxicity, lethal dose LD50 in mice; format: in vivo
Source text: Lethal dose LD50 in mice in mg./kg. body weight:

[4] = tested on: Trichophyton mentagrophytes; test: MIC, complete inhibition of growth, Trichophyton mentagrophytes; format: cell-based; settings: for MIC: peptone-dextrose medium, 2 to 5 days at 28° C.
Method: as §1

[5] = peptone-dextrose medium, 2 to 5 days at 28° C.
[6] = Candida albicans 11651, peptone-dextrose medium, 2 to 5 days at 28° C.
[7] = peptone-dextrose medium, 2 to 5 days at 28° C., read-out: MIC

## C[C@@H]1[C@H](O)[C@@H](C)/C=C/C=C/C=C/C=C/C=C/C=C/C=C/[C@H](O[C@@H]2O[C@H](C)[C@@H](O)[C@H](N)[C@@H]2O)C[C@@H]2O[C@](O)(C[C@@H](O)C[C@@H](O)[C@H](O)CC[C@@H](O)C[C@@H](O)CC(=O)O[C@H]1C)C[C@H](O)[C@H]2C(=O)O [Amphotericin B]
Aspergillus niger
  MIC: 0.6 µg/mL (≈ 0.649 µM)
Candida albicans 11651; Candida albicans, 11651
  MIC: 1.25 µg/mL (≈ 1.35 µM)
Trichomoras vaginalis
  MIC: > 10 µg/mL

## CNc1ccc(C(=O)CC(O)C2C/C=C/C=C/C=C/C=C/C=C/C=C/C=C/C(OC3OC(C)C(O)C(N)C3O)CC(O)C(C(=O)O)C(O)CC(O)CC(O)CC(O)CC(O)CC(O)CC(O)CC(O)CC(=O)O2)cc1 (centres unmarked) [Lucknomycin]
[1]
  inhibiting activity: inactive; also recorded: does not exert an inhibiting activity
Trichomonas vaginalis [2]
  ED50 on Trichomonas vaginalis: 12 µg/mL (≈ 11.3 µM)
Staphylococcus aureus
  inhibiting activity: inactive; also recorded: does not exert an inhibiting activity
Candida krusei
  activity against growth (in words): effective
Candida krusei; [5]
  MIC: 0.2 to 0.4 µg/mL
Proteus mirabilis
  inhibiting activity: inactive; also recorded: does not exert an inhibiting activity
Trichomonas vaginalis [3]
  individuals of a culture in full growth killed: 50%
Klebsiella pneumoniae
  inhibiting activity: inactive; also recorded: does not exert an inhibiting activity
Escherichia coli
  inhibiting activity: inactive; also recorded: does not exert an inhibiting activity
Trichophyton acuminatum
  activity (in words): moderately active
  MIC: 12.5 µg/mL (≈ 11.8 µM)
Aspergillus niger
  activity against growth (in words): effective
Aspergillus niger; [5]
  MIC: 0.5 µg/mL (≈ 0.471 µM)
Candida albicans 11651; Candida albicans
  activity against growth (in words): effective
Candida albicans 11651; [6]
  MIC: 0.1 to 0.2 µg/mL
Pseudomonas aeruginosa
  inhibiting activity: inactive; also recorded: does not exert an inhibiting activity
Trichomoras vaginalis
  activity (in words): effective
Trichomoras vaginalis; [5]
  MIC: < 0.05 µg/mL
Candida tropicalis
  activity against growth (in words): effective
Candida tropicalis; [5]
  MIC: 0.1 to 0.2 µg/mL
Solubility; in 60% methanol, concentrated ethanol (ethanol) and isopropanol
  Solubility: less soluble
Solubility; in benzene, acetone, water, chloroform, absolute ethanol, cyclohexane, ethyl acetate and diethyl ether
  Solubility: insoluble
Solubility; in pyridine, dimethylformamide and dimethylacetamide
  Solubility: soluble
Candida albicans; after 4 administrations
  Number of cured rats/infested rats: 14/16
Candida albicans; after 8 administrations
  Number of cured rats/infested rats: 13/13
Candida albicans; after 12 administrations
  Number of cured rats/infested rats: 12/12
Streptococcus faecalis
  inhibiting activity: inactive; also recorded: does not exert an inhibiting activity
mice; intraperitoneal
  LD50: 5-10 mg./kg. body weight
mice; intravenous
  LD50: 10-20 mg./kg. body weight
mice; oral
  LD50: > 800 mg./kg. body weight
mice; subcutaneous
  LD50: > 800 mg./kg. body weight
[4]
  activity (in words): moderately active
  MIC: 25 µg/mL (≈ 23.6 µM)

## Cc1ncc([N+](=O)[O-])n1CCO [Metronidazole]
Trichomoras vaginalis; [7]
  MIC: 0.5 µg/mL (≈ 2.92 µM)

## C[C@@H]1[C@H](O)[C@@H](C)/C=C/C=C/CC/C=C/C=C/C=C/C=C/C(O[C@H]2O[C@H](C)[C@@H](O)[C@H](N)[C@@H]2O)CC2O[C@](O)(CC(O)C(O)CCC(O)CC(O)CC(O)CC(=O)O[C@H]1C)CC(O)C2C(=O)O (some centres unmarked) [Nystatin, nystatin]
Trichophyton acuminatum
  MIC: 25 µg/mL (≈ 27 µM)
Aspergillus niger; [5]
  MIC: 5 µg/mL (≈ 5.4 µM)
Candida albicans 11651; [6]
  MIC: 2.5 µg/mL (≈ 2.7 µM)
Trichomoras vaginalis; [5]
  MIC: > 10 µg/mL
Candida albicans; after 4 administrations
  Number of cured rats/infested rats: 5/11
Candida albicans; after 8 administrations
  Number of cured rats/infested rats: 8/11
Candida albicans; after 12 administrations
  Number of cured rats/infested rats: 9/11
[4]
  MIC: 25 µg/mL (≈ 27 µM)

## C[C@@H]1C/C=C/C=C/C=C/C=C/[C@H](O[C@@H]2O[C@H](C)[C@@H](O)[C@H](N)[C@@H]2O)C[C@@H]2O[C@](O)(C[C@@H](O)C[C@H]3O[C@@H]3/C=C/C(=O)O1)C[C@H](O)[C@H]2C(=O)O [Pimaricin]
Aspergillus niger; [7]
  MIC: 2.5 µg/mL (≈ 3.76 µM)
Candida albicans 11651; Candida albicans 11651, peptone-dextrose medium, 2 to 5 days at 28° C., read-out: MIC
  MIC: 5 µg/mL (≈ 7.51 µM)
Trichomoras vaginalis; [7]
  MIC: > 10 µg/mL

## Clc1ccccc1C(c1ccccc1)(c1ccccc1)n1ccnc1 [clotrimazole]
Candida albicans; after 4 administrations
  Number of cured rats/infested rats: 17/18
Candida albicans; after 8 administrations
  Number of cured rats/infested rats: 16/16
Candida albicans; after 12 administrations
  Number of cured rats/infested rats: 17/17

## Candicidin
Trichomonas vaginalis [2]
  ED50 on Trichomonas vaginalis: 24 µg/mL

## Trichomycin
Trichomonas vaginalis [2]
  ED50 on Trichomonas vaginalis: 43 µg/mL
